Data from patent US9439843B2, “Oral care compositions” (Colgate-Palmolive Company, priority 2011, dated 2016).

Experiment: Solubility of isobutyl magnolol (statement in words)
Type: physicochemical
Conditions: background statement

- solubility both in water and in oil: extremely poor
SMILES: CC(C)Cc1ccc(O)c(-c2cc(CC(C)C)ccc2O)c1 [isobutyl magnolol, 5,5′-di(2-methylpropyl)-biphenyl-2,2′-diol]
